# In ChEMBL document CHEMBL4342407, “Thieno[2,3-d]pyrimidine as a promising scaffold in medicinal chemistry: Recent advances” (Bioorg Med Chem, 2019):
# How the values were obtained:
# Hepatovirus A = assay: Antiviral activity against Hepatitis A virus infected in HepG2 cells assessed as virus inhibition at 40 ug/L incubated overnight with virus followed by inoculation and measured after 1 hr by crystal violet staining based plaque reduction assay; type: functional
# HCT-116 = assay: Antiproliferative activity against human HCT116 after 18 hrs by MTT assay; type: functional, cell-based; conditions: HCT-116, 18 h
# [1] = Ulcerogenic activity in Sprague-Dawley rat assessed as ulcer index at 20 mg/kg, ip pretreated followed by pylorus ligation and measured at 4 hrs post ligation; type: toxicity, organism-based; conditions: in vivo
# Mus musculus [2] = assay: Analgesic activity in Swiss albino mouse assessed as protection against acetic acid-induced writhing at 15 mg/kg, po pretreated for 30 mins followed by acetic acid challenge and measured after 20 mins relative to control; type: functional
# Rattus norvegicus [3] = assay: Antiinflammatory activity in Sprague-Dawley rat assessed as inhibition of carrageenan-induced edema at 15 mg/kg, po pretreated for 1 hr followed by carrageenan challenge and measured after 4 hrs by mercury plethysmometer relative to control; type: functional
# Adenosine receptor A3 = molecular target: T1, Adenosine receptor A3 (Homo sapiens, UniProt P0DMS8); assay: Displacement of [3H]-HEMADO from human A3 receptor expressed in CHO cells by radioligand competitive binding assay; type: cell-based
# T1 sequence (P0DMS8 whole entry): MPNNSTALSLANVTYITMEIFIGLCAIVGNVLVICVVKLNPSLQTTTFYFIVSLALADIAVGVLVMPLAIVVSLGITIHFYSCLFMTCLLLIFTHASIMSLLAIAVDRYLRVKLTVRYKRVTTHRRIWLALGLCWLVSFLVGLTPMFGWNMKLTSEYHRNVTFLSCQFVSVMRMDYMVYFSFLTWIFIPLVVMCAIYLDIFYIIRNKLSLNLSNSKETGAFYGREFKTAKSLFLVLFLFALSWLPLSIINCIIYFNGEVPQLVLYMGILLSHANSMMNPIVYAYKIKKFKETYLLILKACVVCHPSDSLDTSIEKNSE
# Homo sapiens [4] = species on record: Homo sapiens; assay: Selectivity ratio of Ki for human A1 receptor expressed in CHO cells to Ki for human A2A receptor expressed in CHO cells; type: cell-based
# Homo sapiens [5] = species on record: Homo sapiens; assay: Selectivity ratio of Ki for human A2A receptor expressed in CHO cells to Ki for human A3 receptor expressed in CHO cells; type: cell-based
# Adenosine receptor A2a = Adenosine receptor A2a (Homo sapiens, UniProt P29274); assay: Displacement of [3H]-NECA from human A2A receptor expressed in CHO cells by radioligand competitive binding assay; type: cell-based
# Chain of Adenosine receptor A2a (P29274 whole entry): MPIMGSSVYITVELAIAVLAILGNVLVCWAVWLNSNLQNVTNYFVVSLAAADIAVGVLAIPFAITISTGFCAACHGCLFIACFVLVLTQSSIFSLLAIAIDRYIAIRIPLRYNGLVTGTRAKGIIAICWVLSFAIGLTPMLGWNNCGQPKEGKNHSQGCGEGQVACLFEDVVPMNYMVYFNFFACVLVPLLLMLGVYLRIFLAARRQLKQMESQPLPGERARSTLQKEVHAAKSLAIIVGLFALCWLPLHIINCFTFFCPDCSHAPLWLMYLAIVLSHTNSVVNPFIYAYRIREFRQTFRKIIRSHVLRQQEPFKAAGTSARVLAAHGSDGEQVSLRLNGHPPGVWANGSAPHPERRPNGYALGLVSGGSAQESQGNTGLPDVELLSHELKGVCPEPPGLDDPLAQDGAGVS
# Adenosine receptor A1 = molecular target: T2, Adenosine receptor A1 (Homo sapiens, UniProt P30542); assay: Displacement of [3H]-CCPA binding from human A1 receptor expressed in CHO cells by radioligand competitive binding assay; type: cell-based
# T2 sequence (P30542 whole entry): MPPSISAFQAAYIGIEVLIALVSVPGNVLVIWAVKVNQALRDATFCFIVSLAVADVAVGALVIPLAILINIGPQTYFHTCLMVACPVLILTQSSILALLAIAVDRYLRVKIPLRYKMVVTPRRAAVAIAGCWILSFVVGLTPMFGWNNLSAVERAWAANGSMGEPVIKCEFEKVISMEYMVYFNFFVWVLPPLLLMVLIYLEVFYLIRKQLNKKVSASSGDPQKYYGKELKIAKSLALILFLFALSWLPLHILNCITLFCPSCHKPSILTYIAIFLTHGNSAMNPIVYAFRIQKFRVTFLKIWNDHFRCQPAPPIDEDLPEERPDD
# Homo sapiens [6] = species on record: Homo sapiens; assay: Selectivity ratio of Ki for human A1 receptor expressed in CHO cells to Ki for human A3 receptor expressed in CHO cells; type: cell-based
# Escherichia coli [7] = assay: Antibacterial activity against Escherichia coli assessed as zone inhibition at 500 ug/ml by cup plate agar diffusion method; type: functional; conditions: read-out: IZ
# Candida albicans = assay: […] activity against Candida albicans assessed as zone inhibition at 500 ug/ml by cup plate agar diffusion method; type: functional; conditions: read-out: IZ
# Pseudomonas aeruginosa = assay: Antibacterial activity against Pseudomonas aeruginosa assessed as zone inhibition at 500 ug/ml by cup plate agar diffusion method; type: functional; conditions: read-out: IZ
# Bacillus subtilis [8] = assay: Antibacterial activity against Bacillus subtilis assessed as zone inhibition at 500 ug/ml by cup plate agar diffusion method; type: functional; conditions: read-out: IZ
# Staphylococcus aureus [9] = assay: Antibacterial activity against Staphylococcus aureus assessed as zone inhibition at 500 ug/ml by cup plate agar diffusion method; type: functional; conditions: read-out: IZ
# Human alphaherpesvirus 1 = assay: Antiviral activity against Herpes simplex virus 1 at 20 ug/10^5; type: functional
# Escherichia coli [10] = assay: Antibacterial activity against Escherichia coli assessed as zone inhibition at 100 ug/ml; type: functional; conditions: read-out: IZ
# Staphylococcus aureus [11] = assay: Antibacterial activity against Staphylococcus aureus assessed as zone inhibition at 100 ug/ml; type: functional; conditions: read-out: IZ
# Bacillus subtilis [12] = assay: Antibacterial activity against Bacillus subtilis assessed as zone inhibition at 100 ug/ml; type: functional; conditions: read-out: IZ
# Klebsiella pneumoniae = assay: Antibacterial activity against Klebsiella pneumoniae assessed as zone inhibition at 100 ug/ml; type: functional; conditions: read-out: IZ
# Rattus norvegicus [13] = assay: Antiinflammatory activity in Wistar rat model of Freund's adjuvant-induced arthritis assessed as inhibition of arthritis by measuring reduction in paw volume at 75 mg/kg, po administered once daily for 8 days starting from day 7 post Freund's adjuvant treatment and measured after 18 days by mercury plethysmography relative to control; type: functional
# Rattus norvegicus [14] = assay: Antiinflammatory activity in Wistar rat assessed as inhibition of cotton pellet-induced granuloma at 75 mg/kg, po administered daily for 7 days and measured on day 8 relative to control; type: functional
# Mus musculus [15] = assay: Antiinflammatory activity in Swiss mouse assessed as inhibition of TPA-induced ear edema at 1 mg/ear applied topically and measured 4 hrs post-TPA challenge relative to control; type: functional
# Rattus norvegicus [16] = assay: Antiinflammatory activity in po dosed Wistar rat assessed as reduction in carrageenan-induced paw edema pretreated for 1 hr followed by carrageenan challenge and measured over 2 to 4 hrs post carrageenan challenge by plethysmography; type: functional
compound,measurement,setting,value
CC(=O)OC[C@H]1O[C@@H](Sc2nc3sc4c(c3c(=O)n2Cc2ccccc2)CCCCC4)[C@H](OC(C)=O)[C@@H](OC(C)=O)[C@@H]1OC(C)=O,inhibition (INH),Hepatovirus A,55%
CCc1cc2c(OCc3cc(-c4ccc(OC)cc4)no3)ncnc2s1,IC50,HCT-116,112 µM
CC(=O)Cc1c(C(C)C)sc2nc(C)[nH]c(=O)c12,UI,[1],1.1
same,Activity,Mus musculus [2],59%
same,inhibition in vivo at 15 mg/kg,Rattus norvegicus [3],74.5%
Nc1nc(-n2ccnc2)c2c3c(sc2n1)CCCC3,Ki,Adenosine receptor A3,> 30 µM
same,Ratio Ki,Homo sapiens [4],2.6
same,Ratio Ki,Homo sapiens [5],> 0.14
same,Ki,Adenosine receptor A2a,4.06 µM
same,Ki,Adenosine receptor A1,10.4 µM
same,Ratio Ki,Homo sapiens [6],> 0.35
c1csc(C2=Nc3ccccc3SC(c3cc4cncnc4s3)C2)c1 (centres undefined),zone of inhibition at 500 µg/mL,Escherichia coli [7],19.4 mm
same,zone of inhibition at 500 µg/mL,Candida albicans,19.6 mm
same,zone of inhibition at 500 µg/mL,Pseudomonas aeruginosa,19.4 mm
same,zone of inhibition at 500 µg/mL,Bacillus subtilis [8],19.4 mm
same,zone of inhibition at 500 µg/mL,Staphylococcus aureus [9],19.2 mm
Nc1nc2c(ncn2COCCO)c(=O)[nH]1 [ACYCLOVIR],Activity,Human alphaherpesvirus 1,100%
Cc1c(-c2ccccc2)sc2nc3n(-c4ccccc4)nc(-c4ccccc4)n3c(=O)c12,UI,[1],1.1
same,Activity,Mus musculus [2],52%
same,inhibition in vivo at 15 mg/kg,Rattus norvegicus [3],74.6%
NC12CC3CC(CC(C3)C1)C2 [AMANTADINE],inhibition (INH),Hepatovirus A,55%
FC(F)(F)c1ccc(C2=Nc3ccccc3SC(c3cc4cncnc4s3)C2)cc1 (centres undefined),zone of inhibition at 500 µg/mL,Escherichia coli [7],16.2 mm
same,zone of inhibition at 500 µg/mL,Candida albicans,16 mm
same,zone of inhibition at 500 µg/mL,Pseudomonas aeruginosa,16.1 mm
same,zone of inhibition at 500 µg/mL,Bacillus subtilis [8],18.8 mm
same,zone of inhibition at 500 µg/mL,Staphylococcus aureus [9],17 mm
CC(=O)c1nn(-c2ccc(Cl)cc2)c2nc3sc(-c4ccccc4)c(C)c3c(=O)n12,UI,[1],0.9
same,Activity,Mus musculus [2],35%
same,inhibition in vivo at 15 mg/kg,Rattus norvegicus [3],74.5%
CC(=O)OC[C@H]1O[C@@H](Sc2nc3sc4c(c3c(=O)n2-c2ccccc2)CCCCC4)[C@H](OC(C)=O)[C@@H](OC(C)=O)[C@@H]1OC(C)=O,inhibition (INH),Hepatovirus A,50%
Cc1sc2nc(N)nc(-n3cncn3)c2c1C,Ki,Adenosine receptor A3,> 30 µM
same,Ratio Ki,Homo sapiens [4],7.2
same,Ratio Ki,Homo sapiens [5],> 0.19
same,Ki,Adenosine receptor A2a,5.69 µM
same,Ki,Adenosine receptor A1,40.8 µM
same,Ratio Ki,Homo sapiens [6],> 1.4
FC(F)(F)c1ccc(C2=NOC(c3cc4cncnc4s3)C2)cc1 (centres undefined),zone of inhibition at 100 µg/mL,Escherichia coli [10],17 mm
same,zone of inhibition at 100 µg/mL,Staphylococcus aureus [11],15 mm
same,zone of inhibition at 100 µg/mL,Bacillus subtilis [12],13 mm
same,zone of inhibition at 100 µg/mL,Klebsiella pneumoniae,16.5 mm
CC1(C)S[C@@H]2[C@H](NC(=O)[C@H](N)c3ccccc3)C(=O)N2[C@H]1C(=O)O [AMPICILLIN],zone of inhibition at 500 µg/mL,Escherichia coli [7],25 mm
same,zone of inhibition at 500 µg/mL,Pseudomonas aeruginosa,21 mm
same,zone of inhibition at 500 µg/mL,Bacillus subtilis [8],24 mm
same,zone of inhibition at 500 µg/mL,Staphylococcus aureus [9],22 mm
c1csc(C2=NOC(c3cc4cncnc4s3)C2)c1 (centres undefined),zone of inhibition at 100 µg/mL,Escherichia coli [10],15.5 mm
same,zone of inhibition at 100 µg/mL,Staphylococcus aureus [11],12.5 mm
same,zone of inhibition at 100 µg/mL,Bacillus subtilis [12],11.5 mm
same,zone of inhibition at 100 µg/mL,Klebsiella pneumoniae,14.5 mm
CC(=O)OC[C@H]1O[C@@H](Sc2nc3sc4c(c3c(=O)n2C)CCCCC4)[C@H](OC(C)=O)[C@@H](OC(C)=O)[C@@H]1OC(C)=O,inhibition (INH),Hepatovirus A,50%
CC(=O)Nc1nc2sc(C)c(C)c2c(=O)[nH]1,Ki,Adenosine receptor A3,0.524 µM
same,Ratio Ki,Homo sapiens [4],> 1
same,Ratio Ki,Homo sapiens [5],> 57
same,Ki,Adenosine receptor A2a,> 30 µM
same,Ki,Adenosine receptor A1,> 30 µM
same,Ratio Ki,Homo sapiens [6],> 57
CC(=O)Oc1ccccc1C(=O)O [ASPIRIN],UI,[1],1.1 to 1.7
same,inhibition in vivo at 75 mg/kg,Rattus norvegicus [13],40%
same,Activity,Mus musculus [2],53%
same,inhibition in vivo at 75 mg/kg,Rattus norvegicus [14],30.1%
same,inhibition (INH),Mus musculus [15],20.1%
same,ED50,Rattus norvegicus [16],69.3 mg/kg
FC(F)(F)Oc1ccc(C2=Nc3ccccc3SC(c3cc4cncnc4s3)C2)cc1 (centres undefined),zone of inhibition at 500 µg/mL,Escherichia coli [7],12.3 mm
same,zone of inhibition at 500 µg/mL,Candida albicans,10.6 mm
same,zone of inhibition at 500 µg/mL,Pseudomonas aeruginosa,13.2 mm
same,zone of inhibition at 500 µg/mL,Bacillus subtilis [8],15.3 mm
same,zone of inhibition at 500 µg/mL,Staphylococcus aureus [9],15.1 mm
c1ccc2c(c1)N=C(c1cnccn1)CC(c1cc3cncnc3s1)S2 (centres undefined),zone of inhibition at 500 µg/mL,Escherichia coli [7],13.6 mm
same,zone of inhibition at 500 µg/mL,Candida albicans,10.8 mm
same,zone of inhibition at 500 µg/mL,Pseudomonas aeruginosa,13.4 mm
same,zone of inhibition at 500 µg/mL,Bacillus subtilis [8],16.2 mm
same,zone of inhibition at 500 µg/mL,Staphylococcus aureus [9],15.7 mm
CC(=O)Cc1c(C(C)C)sc2nc(S)[nH]c(=S)c12,UI,[1],1.1
same,Activity,Mus musculus [2],60%
same,inhibition in vivo at 15 mg/kg,Rattus norvegicus [3],71.6%
c1cnc(C2=NOC(c3cc4cncnc4s3)C2)cn1 (centres undefined),zone of inhibition at 100 µg/mL,Escherichia coli [10],13 mm
same,zone of inhibition at 100 µg/mL,Staphylococcus aureus [11],11.5 mm
same,zone of inhibition at 100 µg/mL,Bacillus subtilis [12],11 mm
same,zone of inhibition at 100 µg/mL,Klebsiella pneumoniae,12.5 mm
CC(=O)OC[C@H]1O[C@@H](Sc2nc3sc4c(c3c(=O)n2CCO)CCCCC4)[C@H](OC(C)=O)[C@@H](OC(C)=O)[C@@H]1OC(C)=O,inhibition (INH),Hepatovirus A,65%
FC(F)(F)Oc1ccc(C2=NOC(c3cc4cncnc4s3)C2)cc1 (centres undefined),zone of inhibition at 100 µg/mL,Escherichia coli [10],16.5 mm
same,zone of inhibition at 100 µg/mL,Staphylococcus aureus [11],14.5 mm
same,zone of inhibition at 100 µg/mL,Bacillus subtilis [12],12.5 mm
same,zone of inhibition at 100 µg/mL,Klebsiella pneumoniae,15 mm
CC1(C)S[C@@H]2[C@H](NC(=O)[C@H](N)c3ccc(O)cc3)C(=O)N2[C@H]1C(=O)O [AMOXICILLIN],zone of inhibition at 100 µg/mL,Escherichia coli [10],19.5 mm
same,zone of inhibition at 100 µg/mL,Staphylococcus aureus [11],17.6 mm
same,zone of inhibition at 100 µg/mL,Bacillus subtilis [12],15.5 mm
same,zone of inhibition at 100 µg/mL,Klebsiella pneumoniae,18 mm
CC(=O)Nc1nc2sc3c(c2c(=O)[nH]1)CCC3,Ki,Adenosine receptor A3,1.35 µM
same,Ratio Ki,Homo sapiens [4],> 3.3
same,Ratio Ki,Homo sapiens [5],> 22
same,Ki,Adenosine receptor A2a,> 30 µM
same,Ki,Adenosine receptor A1,> 100 µM
same,Ratio Ki,Homo sapiens [6],> 74
Cc1sc2nc(NC(=O)c3ccccc3)[nH]c(=O)c2c1C,Ki,Adenosine receptor A3,0.124 µM
same,Ratio Ki,Homo sapiens [4],> 46
same,Ratio Ki,Homo sapiens [5],5.24
same,Ki,Adenosine receptor A2a,0.65 µM
same,Ki,Adenosine receptor A1,> 30 µM
same,Ratio Ki,Homo sapiens [6],> 240
